{
  "source": "patent US20250186558A1",
  "about": "“FORMULATIONS COMPRISING ACID-NEUTRALIZING POLYMER FOR ORAL ADMINISTRATION OF ACTIVE AGENTS” (Entera Bio Ltd., priority 2022, published 2025)",
  "key": {"[1]": {"assay": "pH upon addition of test substance to 0.1 M HCl solution (pH 1.2), pH meter", "type": "physicochemical", "protocol": "The solution pH was determined using an MP-103 pH-meter (MRC, Israel) equipped with ELC-10-00 electrode (MRC, Israel) or with a thin electrode HI1083 (HANNA instruments Inc.), shortly after dissolution and up to 26 hours later in order to ensure that the pH remained stable. The highest pH value obtained during the experimental time period was recorded in order to compare the acid-neutralizing capacity of each substance.\nSNAC and the basic polymers sodium alginate, sodium carboxymethylcellulose in non-crosslinked (Na-CMC) and crosslinked (croscarmellose sodium, CCS) forms, and sodium starch glycolate (SSG) were dissolved in various volumes of 0.1 M HCl solution (pH 1.2) at concentrations of 1, 2, 4, 10, 20, 50, 100 and 150 mg/ml, and the solution pH was determined using an MP-103 pH-meter (MRC, Israel) equipped with ELC-10-00 electrode (MRC, Israel), as described in the Materials and Methods section hereinabove.\nIn order to obtain a beneficial rise in pH with a reduced loss of the active form of the absorption enhancer, the effect of various concentrations of different polymers containing carboxylate groups (sodium alginate, sodium starch glycolate, sodium carboxymethylcellulose, and croscarmellose sodium) on pH upon addition to a 0.1 M HCl solution (pH 1.2) was also evaluated. FIG. 3A presents pH values determined using an MP-103 pH-meter (MRC, Israel) equipped with ELC-10-00 electrode (MRC, Israel) and FIG. 3B presents pH values determined using an MP-103 pH-meter (MRC, Israel) equipped with a thin electrode HI1083 (HANNA instruments Inc.)."}, "pepsin": {"test_system": "pepsin", "assay": "Effect of pH on proteolysis of hPTH(1-34) by pepsin", "type": "in vitro ADME", "conditions": "37° C., 3 minutes, media pH 2, 4, 5, 6, 7", "protocol": "The effect of pH on peptide proteolysis by pepsin was determined by incubating 13.5 µg/ml human parathyroid hormone (1-34) (hPTH(1-34)) with 150 µg/ml pepsin, at various pH values, and determining the percentage of hPTH(1-34) which remained. The amount of hPTH(1-34) remaining upon addition to 150 µg/ml pepsin at 37° C. was determined in media with different pH values, followed by immediate (10 second) vortex and centrifugation for 3 minutes at 4° C., 4000 RCF. The following media were used: simulated gastric fluid (pH 2), prepared from 0.01 M HCl and NaCl; phthalate buffer (pH 4 or 5); and phosphate buffer (pH 6 or 7)."}, "[2]": {"assay": "Teduglutide plasma concentration after oral mini-tablets with SNAC and SSG in rats", "type": "in vivo, male Sprague-Dawley (SD) rats", "conditions": "mini-tablets: 0.7 mg teduglutide (2.34 mg/Kg), 15 mg SNAC, 5.33 mg SSG; male SD rats, n=7", "protocol": "A formulation was prepared with 0.7 mg teduglutide (2.34 mg/Kg), 15 mg SNAC, 0.2 mg stearate and 5.33 mg SSG. […] Afterwards, mini-tablets were prepared from the mixes using a 2 mm punch and die set at 1 ton/cm^2.\nThe study was conducted in 7 male Sprague-Dawley (SD) rats weighing about 299 grams (290-320 grams). Animals were deprived of food 12-15 hours prior to administration. Water supply was removed one hour before administration and returned one hour post-administration. The mini-tablets were administered by a flexible intragastric gavage with a tip adapted for solid dosage forms administration, without the aid of water."}},
  "data": [
    {"smiles": "O=C(O)CCCCCCCNC(=O)c1ccccc1O", "note": "[SNAC, sodium 8-N-(2-hydroxybenzoyl)aminocaprylate]", "values": [
      {"measurement": "pH 5 minutes after dissolution", "setting": "[1]; 10 mg/ml SNAC added to HCl solution (pH 1.2)", "result": "about 1.5"},
      {"measurement": "pH 5 minutes after dissolution", "setting": "[1]; 20 mg/ml SNAC added to HCl solution (pH 1.2)", "result": 6.5},
      {"measurement": "pH 5 minutes after dissolution", "setting": "[1]; 100 mg/ml SNAC added to HCl solution (pH 1.2)", "result": "about 7.5"}
    ]},
    {"smiles": "CC[C@H](C)[C@H](NC(=O)[C@H](CCC(=O)O)NC(=O)[C@H](CO)NC(=O)[C@@H](NC(=O)[C@@H](N)CO)C(C)C)C(=O)N[C@@H](CCC(N)=O)C(=O)N[C@@H](CC(C)C)C(=O)N[C@@H](CCSC)C(=O)N[C@@H](Cc1cnc[nH]1)C(=O)N[C@@H](CC(N)=O)C(=O)N[C@@H](CC(C)C)C(=O)NCC(=O)N[C@@H](CCCCN)C(=O)N[C@@H](Cc1cnc[nH]1)C(=O)N[C@@H](CC(C)C)C(=O)N[C@@H](CC(N)=O)C(=O)N[C@@H](CO)C(=O)N[C@@H](CCSC)C(=O)N[C@@H](CCC(=O)O)C(=O)N[C@@H](CCCN=C(N)N)C(=O)N[C@H](C(=O)N[C@@H](CCC(=O)O)C(=O)N[C@@H](Cc1c[nH]c2ccccc12)C(=O)N[C@@H](CC(C)C)C(=O)N[C@@H](CCCN=C(N)N)C(=O)N[C@@H](CCCCN)C(=O)N[C@@H](CCCCN)C(=O)N[C@@H](CC(C)C)C(=O)N[C@@H](CCC(N)=O)C(=O)N[C@@H](CC(=O)O)C(=O)N[C@H](C(=O)N[C@@H](Cc1cnc[nH]1)C(=O)N[C@@H](CC(N)=O)C(=O)N[C@@H](Cc1ccccc1)C(=O)O)C(C)C)C(C)C", "note": "[hPTH(1-34)]", "values": [
      {"measurement": "proteolysis of hPTH(1-34) by pepsin as a function of pH", "setting": "pepsin", "result": "inhibited when the pH increased to about pH 6 or higher"}
    ]},
    {"smiles": "CC[C@H](C)[C@H](NC(=O)[C@H](Cc1ccccc1)NC(=O)[C@H](CC(=O)O)NC(=O)[C@H](CCCNC(=N)N)NC(=O)[C@H](C)NC(=O)[C@H](C)NC(=O)[C@H](CC(C)C)NC(=O)[C@H](CC(N)=O)NC(=O)[C@H](CC(=O)O)NC(=O)[C@H](CC(C)C)NC(=O)[C@@H](NC(=O)[C@@H](NC(=O)[C@H](CC(N)=O)NC(=O)[C@H](CCSC)NC(=O)[C@H](CCC(=O)O)NC(=O)[C@H](CC(=O)O)NC(=O)[C@H](CO)NC(=O)[C@H](Cc1ccccc1)NC(=O)[C@H](CO)NC(=O)CNC(=O)[C@H](CC(=O)O)NC(=O)CNC(=O)[C@@H](N)Cc1c[nH]cn1)[C@@H](C)O)[C@@H](C)CC)C(=O)N[C@@H](CC(N)=O)C(=O)N[C@@H](Cc1c[nH]c2ccccc12)C(=O)N[C@@H](CC(C)C)C(=O)N[C@H](C(=O)N[C@@H](CCC(N)=O)C(=O)N[C@H](C(=O)N[C@@H](CCCCN)C(=O)N[C@H](C(=O)N[C@H](C(=O)N[C@@H](CC(=O)O)C(=O)O)[C@@H](C)O)[C@@H](C)CC)[C@@H](C)O)[C@@H](C)CC", "note": "[teduglutide]", "values": [
      {"measurement": "teduglutide plasma concentrations as a function of time after oral administration", "setting": "[2]", "result": "enable oral delivery of teduglutide"}
    ]}
  ]
}
